In patent US20080051466A1, “Isoalpha acid based protein kinase modulation cancer treatment” (Metaproteomics, LLC, priority 2006, published 2008):

What was measured:
Assay in all cases: KinaseProfiler Assay
Format in all cases: biochemical
MAPKAP-K2 = MAPKAP-K2 (Homo sapiens, UniProt P49137); conditions: read-out: MAPKAP-K2, % of Control
HIPK3 = HIPK3 (Homo sapiens, UniProt Q9H422); conditions: read-out: HIPK3, % of Control
CDK6/cyclinD3 = CDK6/cyclinD3 (Homo sapiens, UniProt Q00534); conditions: read-out: CDK6/cyclinD3, % of Control
Chain of CDK6/cyclinD3 (Q00534 whole entry): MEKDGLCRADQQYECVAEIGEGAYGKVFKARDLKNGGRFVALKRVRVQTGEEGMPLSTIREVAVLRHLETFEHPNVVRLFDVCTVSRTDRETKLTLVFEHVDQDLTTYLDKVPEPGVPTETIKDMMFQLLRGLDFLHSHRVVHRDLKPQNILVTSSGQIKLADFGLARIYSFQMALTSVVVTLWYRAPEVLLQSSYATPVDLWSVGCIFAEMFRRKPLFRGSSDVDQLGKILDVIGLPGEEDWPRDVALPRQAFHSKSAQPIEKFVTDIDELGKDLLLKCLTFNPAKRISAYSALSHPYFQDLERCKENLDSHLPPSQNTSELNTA
Chain of CDK6/cyclinD3 (P30281 whole entry partner): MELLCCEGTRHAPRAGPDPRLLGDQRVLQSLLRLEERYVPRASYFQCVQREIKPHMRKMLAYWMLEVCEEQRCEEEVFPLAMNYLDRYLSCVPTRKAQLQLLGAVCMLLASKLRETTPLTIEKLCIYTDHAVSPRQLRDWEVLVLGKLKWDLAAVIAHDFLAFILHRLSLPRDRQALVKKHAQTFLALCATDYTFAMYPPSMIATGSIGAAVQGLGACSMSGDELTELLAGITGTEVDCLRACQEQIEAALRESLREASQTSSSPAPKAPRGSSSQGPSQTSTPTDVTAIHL

IGF-1R = IGF-1R (Homo sapiens, UniProt P08069); conditions: read-out: IGF-1R, % of Control
Rsk2 = Rsk2 (Homo sapiens, UniProt P51812); conditions: read-out: Rsk2, % of Control
Chain of Rsk2 (P51812 whole entry): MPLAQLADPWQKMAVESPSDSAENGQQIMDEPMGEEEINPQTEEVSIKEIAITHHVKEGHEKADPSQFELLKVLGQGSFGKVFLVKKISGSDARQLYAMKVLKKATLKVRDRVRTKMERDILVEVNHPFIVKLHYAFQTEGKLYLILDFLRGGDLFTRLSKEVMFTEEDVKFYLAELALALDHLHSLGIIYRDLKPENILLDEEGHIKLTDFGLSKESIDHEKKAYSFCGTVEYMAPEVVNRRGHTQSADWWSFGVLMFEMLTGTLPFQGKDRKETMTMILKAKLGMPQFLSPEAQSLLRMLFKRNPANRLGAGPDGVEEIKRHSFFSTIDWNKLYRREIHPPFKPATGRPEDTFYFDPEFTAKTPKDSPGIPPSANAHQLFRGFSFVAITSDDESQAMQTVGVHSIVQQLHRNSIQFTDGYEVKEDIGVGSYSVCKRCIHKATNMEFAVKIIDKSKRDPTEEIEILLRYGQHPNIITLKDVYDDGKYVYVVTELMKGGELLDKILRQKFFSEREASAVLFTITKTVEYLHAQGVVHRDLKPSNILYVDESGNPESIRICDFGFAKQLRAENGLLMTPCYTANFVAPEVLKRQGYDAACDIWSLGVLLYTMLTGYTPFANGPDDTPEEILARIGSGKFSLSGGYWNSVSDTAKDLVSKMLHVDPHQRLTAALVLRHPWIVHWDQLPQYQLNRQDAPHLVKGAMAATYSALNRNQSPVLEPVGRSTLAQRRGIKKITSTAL

CHK2 = CHK2 (Homo sapiens, UniProt O96017); conditions: read-out: CHK2, % of Control
Flt4 = Flt4 (Homo sapiens, UniProt P35916); conditions: read-out: Flt4, % of Control
Chain of Flt4 (P35916 25-1363): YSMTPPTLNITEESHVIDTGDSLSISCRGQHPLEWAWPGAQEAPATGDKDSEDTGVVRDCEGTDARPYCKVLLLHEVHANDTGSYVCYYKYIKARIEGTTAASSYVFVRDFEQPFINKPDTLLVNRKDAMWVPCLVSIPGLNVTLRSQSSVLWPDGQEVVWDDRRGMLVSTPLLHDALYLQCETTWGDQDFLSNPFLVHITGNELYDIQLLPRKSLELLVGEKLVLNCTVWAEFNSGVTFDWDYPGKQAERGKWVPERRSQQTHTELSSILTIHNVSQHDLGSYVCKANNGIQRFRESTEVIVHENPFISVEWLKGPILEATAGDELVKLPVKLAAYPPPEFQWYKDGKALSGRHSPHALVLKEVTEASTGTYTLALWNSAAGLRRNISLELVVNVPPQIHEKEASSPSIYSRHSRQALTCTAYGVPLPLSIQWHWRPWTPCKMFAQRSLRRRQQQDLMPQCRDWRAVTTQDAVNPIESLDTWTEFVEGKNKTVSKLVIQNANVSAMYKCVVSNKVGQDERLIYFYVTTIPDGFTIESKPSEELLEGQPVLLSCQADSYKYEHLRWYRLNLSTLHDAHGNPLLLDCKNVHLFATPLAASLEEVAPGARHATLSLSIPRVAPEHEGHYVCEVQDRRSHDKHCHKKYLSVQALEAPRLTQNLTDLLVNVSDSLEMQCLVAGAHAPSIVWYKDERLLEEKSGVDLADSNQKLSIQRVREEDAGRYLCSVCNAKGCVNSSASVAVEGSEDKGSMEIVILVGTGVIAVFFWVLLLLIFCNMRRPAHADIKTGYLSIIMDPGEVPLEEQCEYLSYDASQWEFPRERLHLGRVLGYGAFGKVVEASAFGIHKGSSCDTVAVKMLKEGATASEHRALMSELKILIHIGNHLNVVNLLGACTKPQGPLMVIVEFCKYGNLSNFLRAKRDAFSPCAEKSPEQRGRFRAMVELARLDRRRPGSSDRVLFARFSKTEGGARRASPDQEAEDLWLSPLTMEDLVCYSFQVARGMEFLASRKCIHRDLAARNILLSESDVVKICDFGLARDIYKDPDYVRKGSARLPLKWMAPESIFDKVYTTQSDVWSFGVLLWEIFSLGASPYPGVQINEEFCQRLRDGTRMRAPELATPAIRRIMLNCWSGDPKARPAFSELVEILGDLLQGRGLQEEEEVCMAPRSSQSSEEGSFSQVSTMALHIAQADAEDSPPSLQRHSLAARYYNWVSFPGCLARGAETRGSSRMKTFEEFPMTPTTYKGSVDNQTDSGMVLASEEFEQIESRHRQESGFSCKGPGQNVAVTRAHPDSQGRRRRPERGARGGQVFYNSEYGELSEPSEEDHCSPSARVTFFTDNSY

CK1γ2 = CK1γ2 (Homo sapiens, UniProt P78368); conditions: read-out: CK1γ2, % of Control
CDK9/cyclin T1 = CDK9/cyclin T1 (Homo sapiens, UniProt P50750); conditions: read-out: CDK9/cyclin T1, % of Control
Fer = Fer (Homo sapiens, UniProt P16591); conditions: read-out: Fer, % of Control
PKBα = PKBα (Homo sapiens, UniProt P31749); conditions: read-out: PKBα, % of Control
Chain of PKBα (P31749 whole entry): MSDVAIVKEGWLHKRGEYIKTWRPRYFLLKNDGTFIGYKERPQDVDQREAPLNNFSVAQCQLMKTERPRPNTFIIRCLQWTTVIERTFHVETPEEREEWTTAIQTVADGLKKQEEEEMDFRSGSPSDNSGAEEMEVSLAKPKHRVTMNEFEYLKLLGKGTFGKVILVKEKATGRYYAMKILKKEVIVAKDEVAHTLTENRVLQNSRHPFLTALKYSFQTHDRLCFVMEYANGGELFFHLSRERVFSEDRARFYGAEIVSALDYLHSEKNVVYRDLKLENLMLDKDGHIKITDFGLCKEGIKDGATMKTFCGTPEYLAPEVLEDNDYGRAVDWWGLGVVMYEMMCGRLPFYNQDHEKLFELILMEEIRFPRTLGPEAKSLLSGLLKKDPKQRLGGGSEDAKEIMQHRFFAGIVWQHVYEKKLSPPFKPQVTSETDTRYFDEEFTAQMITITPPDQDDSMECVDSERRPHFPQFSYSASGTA

BTK = BTK (Homo sapiens, UniProt Q06187); conditions: read-out: BTK, % of Control
PKCβII = PKCβII (Homo sapiens, UniProt P05771); conditions: read-out: PKCβII, % of Control
CK1γ3 = CK1γ3 (Homo sapiens, UniProt Q9Y6M4); conditions: read-out: CK1γ3, % of Control
Pim-1 = Pim-1 (Homo sapiens, UniProt P11309); conditions: read-out: Pim-1, % of Control
Chain of Pim-1 (P11309 whole entry): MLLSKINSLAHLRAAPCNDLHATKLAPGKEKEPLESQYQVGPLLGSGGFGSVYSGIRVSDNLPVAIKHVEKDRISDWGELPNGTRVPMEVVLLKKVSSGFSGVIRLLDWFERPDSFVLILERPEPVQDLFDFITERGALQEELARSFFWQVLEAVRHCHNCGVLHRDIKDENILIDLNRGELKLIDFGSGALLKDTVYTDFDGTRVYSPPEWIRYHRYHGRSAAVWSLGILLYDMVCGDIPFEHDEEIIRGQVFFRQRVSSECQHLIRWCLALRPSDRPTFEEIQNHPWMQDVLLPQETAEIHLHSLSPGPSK

DRAK1 = biological target: T1, DRAK1 (Homo sapiens, UniProt Q9UEE5); conditions: read-out: DRAK1, % of Control
T1 sequence (Q9UEE5 1-414): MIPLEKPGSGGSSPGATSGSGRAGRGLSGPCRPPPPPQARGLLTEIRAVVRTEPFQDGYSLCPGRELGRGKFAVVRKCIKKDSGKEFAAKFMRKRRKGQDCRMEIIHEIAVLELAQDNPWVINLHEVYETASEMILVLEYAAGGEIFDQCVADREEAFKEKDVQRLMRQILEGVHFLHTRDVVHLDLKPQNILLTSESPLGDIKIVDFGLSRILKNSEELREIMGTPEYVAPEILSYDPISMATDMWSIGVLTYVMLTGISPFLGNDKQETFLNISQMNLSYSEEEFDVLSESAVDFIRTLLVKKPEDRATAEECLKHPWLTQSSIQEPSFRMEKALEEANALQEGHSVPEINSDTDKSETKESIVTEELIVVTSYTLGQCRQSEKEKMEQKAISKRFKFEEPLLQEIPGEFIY

CaMKI = CaMKI (Homo sapiens, UniProt Q14012); conditions: read-out: CaMKI, % of Control
CK1δ = CK1δ (Homo sapiens, UniProt P48730); conditions: read-out: CK1δ, % of Control
PrKX = PrKX (Homo sapiens, UniProt P51817); conditions: read-out: PrKX, % of Control

Chain of HIPK3 (Q9H422 whole entry): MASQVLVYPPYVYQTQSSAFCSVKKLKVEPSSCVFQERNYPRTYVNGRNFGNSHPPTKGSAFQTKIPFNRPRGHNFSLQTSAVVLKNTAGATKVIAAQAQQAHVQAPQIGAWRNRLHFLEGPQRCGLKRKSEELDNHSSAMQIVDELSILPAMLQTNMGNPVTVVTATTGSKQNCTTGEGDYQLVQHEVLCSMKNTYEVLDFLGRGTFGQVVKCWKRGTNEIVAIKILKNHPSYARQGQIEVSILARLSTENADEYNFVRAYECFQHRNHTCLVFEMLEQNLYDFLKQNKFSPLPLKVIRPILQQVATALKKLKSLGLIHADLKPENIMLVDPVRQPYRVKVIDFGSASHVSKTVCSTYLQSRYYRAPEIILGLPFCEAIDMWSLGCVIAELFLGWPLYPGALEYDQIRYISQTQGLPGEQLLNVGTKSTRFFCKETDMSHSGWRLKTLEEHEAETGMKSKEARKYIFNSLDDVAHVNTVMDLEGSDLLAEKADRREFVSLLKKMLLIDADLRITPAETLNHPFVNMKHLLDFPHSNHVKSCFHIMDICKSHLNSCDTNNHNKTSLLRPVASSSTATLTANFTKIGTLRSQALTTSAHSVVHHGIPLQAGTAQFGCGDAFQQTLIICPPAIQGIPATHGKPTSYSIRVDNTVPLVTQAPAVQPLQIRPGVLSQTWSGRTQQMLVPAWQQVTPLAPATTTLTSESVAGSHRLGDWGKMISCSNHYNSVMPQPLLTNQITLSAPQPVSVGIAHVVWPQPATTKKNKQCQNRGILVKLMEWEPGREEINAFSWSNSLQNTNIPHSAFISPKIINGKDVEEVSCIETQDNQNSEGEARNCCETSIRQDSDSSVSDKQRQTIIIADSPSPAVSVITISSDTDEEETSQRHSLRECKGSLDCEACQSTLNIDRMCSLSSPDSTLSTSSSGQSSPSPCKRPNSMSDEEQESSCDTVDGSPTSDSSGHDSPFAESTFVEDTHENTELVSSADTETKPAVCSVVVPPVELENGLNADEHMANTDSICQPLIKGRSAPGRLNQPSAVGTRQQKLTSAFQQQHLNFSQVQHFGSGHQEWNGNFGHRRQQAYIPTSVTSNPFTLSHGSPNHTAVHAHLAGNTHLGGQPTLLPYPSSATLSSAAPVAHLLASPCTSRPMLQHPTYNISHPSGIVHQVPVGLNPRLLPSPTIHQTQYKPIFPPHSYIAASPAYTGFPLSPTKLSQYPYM

SMILES: COc1cc(O)c(CC=C(C)C)c(O)c1C(=O)/C=C/c1ccc(O)cc1 [Xanthohumol, xanthohumol]
- remaining activity at 1 µg/mL (MAPKAP-K2; 1 ug/ml): 99%
- remaining activity at 5 µg/mL (MAPKAP-K2; 5 ug/ml): 95%
- remaining activity at 25 µg/mL (MAPKAP-K2; 25 ug/ml): 6%
- remaining activity at 50 µg/mL (MAPKAP-K2; 50 ug/ml): 8%
- remaining activity at 1 µg/mL (HIPK3; 1 ug/ml): 106%
- remaining activity at 5 µg/mL (HIPK3; 5 ug/ml): 102%
- remaining activity at 50 µg/mL (HIPK3; 50 ug/ml): 59%
- remaining activity at 1 µg/mL (CDK6/cyclinD3; 1 ug/ml): 110%
- remaining activity at 5 µg/mL (CDK6/cyclinD3; 5 ug/ml): 79%
- remaining activity at 25 µg/mL (CDK6/cyclinD3; 25 ug/ml): 23%
- remaining activity at 50 µg/mL (CDK6/cyclinD3; 50 ug/ml): 7%
- remaining activity at 25 µg/mL (IGF-1R; 25 ug/ml): 129%
- remaining activity at 50 µg/mL (IGF-1R; 50 ug/ml): 139%
- remaining activity at 1 µg/mL (Rsk2; 1 ug/ml): 96%
- remaining activity at 5 µg/mL (Rsk2; 5 ug/ml): 43%
- remaining activity at 25 µg/mL (Rsk2; 25 ug/ml): 3%
- remaining activity at 1 µg/mL (CHK2; 1 ug/ml): 25%
- remaining activity at 5 µg/mL (CHK2; 5 ug/ml): 5%
- remaining activity at 25 µg/mL (CHK2; 25 ug/ml): 3%
- remaining activity at 1 µg/mL (Flt4; 1 ug/ml): 74%
- remaining activity at 5 µg/mL (Flt4; 5 ug/ml): 10%
- remaining activity at 25 µg/mL (Flt4; 25 ug/ml): 11%
- remaining activity at 1 µg/mL (CK1γ2; 1 ug/ml): 92%
- remaining activity at 5 µg/mL (CK1γ2; 5 ug/ml): 48%
- remaining activity at 25 µg/mL (CK1γ2; 25 ug/ml): 30%
- remaining activity at 50 µg/mL (CK1γ2; 50 ug/ml): 12%
- remaining activity at 1 µg/mL (CDK9/cyclin T1; 1 ug/ml): 110%
- remaining activity at 5 µg/mL (CDK9/cyclin T1; 5 ug/ml): 107%
- remaining activity at 25 µg/mL (CDK9/cyclin T1; 25 ug/ml): 45%
- remaining activity at 50 µg/mL (CDK9/cyclin T1; 50 ug/ml): 31%
- remaining activity at 1 µg/mL (Fer; 1 ug/ml): 55%
- remaining activity at 5 µg/mL (Fer; 5 ug/ml): 20%
- remaining activity at 25 µg/mL (Fer; 25 ug/ml): 10%
- remaining activity at 50 µg/mL (Fer; 50 ug/ml): 1%
- remaining activity at 1 µg/mL (PKBα; 1 ug/ml): 102%
- remaining activity at 25 µg/mL (PKBα; 25 ug/ml): 18%
- remaining activity at 50 µg/mL (PKBα; 50 ug/ml): 5%
- remaining activity at 1 µg/mL (BTK; 1 ug/ml): 109%
- remaining activity at 5 µg/mL (BTK; 5 ug/ml): 57%
- remaining activity at 50 µg/mL (BTK; 50 ug/ml): 20%
- remaining activity at 1 µg/mL (PKCβII; 1 ug/ml): 108%
- remaining activity at 5 µg/mL (PKCβII; 5 ug/ml): 108%
- remaining activity at 25 µg/mL (PKCβII; 25 ug/ml): 71%
- remaining activity at 50 µg/mL (PKCβII; 50 ug/ml): 79%
- remaining activity at 1 µg/mL (CK1γ3; 1 ug/ml): 98%
- remaining activity at 5 µg/mL (CK1γ3; 5 ug/ml): 51%
- remaining activity at 25 µg/mL (CK1γ3; 25 ug/ml): 22%
- remaining activity at 50 µg/mL (CK1γ3; 50 ug/ml): 15%
- remaining activity at 1 µg/mL (Pim-1; 1 ug/ml): 88%
- remaining activity at 5 µg/mL (Pim-1; 5 ug/ml): 35%
- remaining activity at 50 µg/mL (Pim-1; 50 ug/ml): 3%
- remaining activity at 1 µg/mL (DRAK1; 1 ug/ml): 133%
- remaining activity at 25 µg/mL (DRAK1; 25 ug/ml): 19%
- remaining activity at 50 µg/mL (DRAK1; 50 ug/ml): -5%
- remaining activity at 1 µg/mL (CaMKI; 1 ug/ml): 142%
- remaining activity at 25 µg/mL (CaMKI; 25 ug/ml): 3%
- remaining activity at 5 µg/mL (CK1δ; 5 ug/ml): 32%
- remaining activity at 25 µg/mL (CK1δ; 25 ug/ml): 16%
- remaining activity at 50 µg/mL (CK1δ; 50 ug/ml): 12%
- remaining activity at 1 µg/mL (PrKX; 1 ug/ml): 92%
- remaining activity at 50 µg/mL (PrKX; 50 ug/ml): 3%
